A word on the MIC: it is the lowest concentration found to suppress growth.

This assay concerns M. catarrhalis A894. In words: Minimal inhibitory concentration (MIC), microdilution method in cation-adjusted Mueller-Hinton Broth (CLSI M7-A7). It is filed as cell-based. As to conditions: Moraxella catarrhalis, strain A894. As for the experimental part:
Minimal inhibitory concentrations (MICs; mg/1) were determined in cation-adjusted Mueller-Hinton Broth by a microdilution method following the description given in “Methods for Dilution Antimicrobial Susceptibility Tests for Bacteria that Grow Aerobically”, Approved standard, 7th ed., Clinical and Laboratory Standards Institute (CLSI) Document M7-A7, Wayne, Pa., USA, 2006.
In general terms: Dilution methods test growth across graded concentrations, often in twofold steps.
On to `O=C1COc2ccc(N3C[C@H](CCNCC4Cn5c(=O)ccc6ccc(F)c4c65)OC3=O)cc2N1` (mixture of isomers) [Example 1, (1RS)-9-fluoro-1-({2-[(S)-2-oxo-3-(3-oxo-3,4-dihydro-2H-benzo[1,4]oxazin-6-yl)-oxazolidin-5-yl]-ethylamino}-methyl)-1,2-dihydro-pyrrolo[3,2,1-ij]quinolin-4-one], for which the MIC was at most 0.031 µg/mL.
The same measure for `O=C1COc2ccc(N3C[C@@H](CCNCC4Cn5c(=O)ccc6ccc(F)c4c65)OC3=O)cc2N1` (mixture of isomers) [Example 2, (1RS)-9-fluoro-1-({2-[(R)-2-oxo-3-(3-oxo-3,4-dihydro-2H-benzo[1,4]oxazin-6-yl)-oxazolidin-5-yl]-ethylamino}-methyl)-1,2-dihydro-pyrrolo[3,2,1-ij]quinolin-4-one]: at most 0.031 µg/mL.
`O=C1CSc2ccc(N3C[C@@H](CCNCC4Cn5c(=O)ccc6ccc(F)c4c65)OC3=O)cc2N1` (mixture of isomers) [Example 3, (1RS)-9-fluoro-1-({2-[(R)-2-oxo-3-(3-oxo-3,4-dihydro-2H-benzo[1,4]thiazin-6-yl)-oxazolidin-5-yl]-ethylamino}-methyl)-1,2-dihydro-pyrrolo[3,2,1-ij]quinolin-4-one] registered an MIC of at most 0.031 µg/mL.
`O=C1CSc2ccc(N3C[C@H](CCNCC4Cn5c(=O)ccc6ccc(F)c4c65)OC3=O)cc2N1` (mixture of isomers) [Example 4, (1RS)-9-fluoro-1-({2-[(S)-2-oxo-3-(3-oxo-3,4-dihydro-2H-benzo[1,4]thiazin-6-yl)-oxazolidin-5-yl]-ethylamino}-methyl)-1,2-dihydro-pyrrolo[3,2,1-ij]quinolin-4-one]: the MIC was at most 0.031 µg/mL.
The same measure for `O=C1CSc2ccc(N3C[C@@H](CNCC4Cn5c(=O)ccc6ccc(F)c4c65)OC3=O)cc2N1` (mixture of isomers) [Example 5, (1RS)-9-fluoro-1-({[(R)-2-oxo-3-(3-oxo-3,4-dihydro-2H-benzo[1,4]thiazin-6-yl)-oxazolidin-5-ylmethyl]-amino}-methyl)-1,2-dihydro-pyrrolo[3,2,1-ij]quinolin-4-one]: at most 0.031 µg/mL.
In the case of `O=C1O[C@H](CNCCC2Cn3c(=O)ccc4ccc(F)c2c43)CN1c1ccc2c(c1)OCCO2` (mixture of isomers) [Example 7, (1RS)-1-(2-{[(R)-3-(2,3-dihydro-benzo[1,4]dioxin-6-yl)-2-oxo-oxazolidin-5-ylmethyl]-amino}-ethyl)-9-fluoro-1,2-dihydro-pyrrolo[3,2,1-ij]quinolin-4-one], the MIC was at most 0.031 µg/mL.
`O=C1CSc2ccc(N3C[C@H](CNCCC4Cn5c(=O)ccc6ccc(F)c4c65)OC3=O)cc2N1` (mixture of isomers) [Example 8, (1RS)-9-fluoro-1-(2-{[(S)-2-oxo-3-(3-oxo-3,4-dihydro-2H-benzo[1,4]thiazin-6-yl)-oxazolidin-5-ylmethyl]-amino}-ethyl)-1,2-dihydro-pyrrolo[3,2,1-ij]quinolin-4-one]: the MIC is at most 0.031 µg/mL.
In the case of `O=C1COc2ccc(N3C[C@@H](CNCCC4Cn5c(=O)ccc6ccc(F)c4c65)OC3=O)cc2N1` (mixture of isomers) [Example 9, (1RS)-9-fluoro-1-(2-{[(R)-2-oxo-3-(3-oxo-3,4-dihydro-2H-benzo[1,4]oxazin-6-yl)-oxazolidin-5-ylmethyl]-amino}-ethyl)-1,2-dihydro-pyrrolo[3,2,1-ij]quinolin-4-one], the MIC is at most 0.031 µg/mL.
`O=C1CSc2ccc(N3C[C@@H](CNCCC4Cn5c(=O)ccc6ccc(F)c4c65)OC3=O)cc2N1` (mixture of isomers) [Example 10, (1RS)-9-fluoro-1-(2-{[(R)-2-oxo-3-(3-oxo-3,4-dihydro-2H-benzo[1,4]thiazin-6-yl)-oxazolidin-5-ylmethyl]-amino}-ethyl)-1,2-dihydro-pyrrolo[3,2,1-ij]quinolin-4-one] came in with an MIC of at most 0.031 µg/mL.
`Cc1ccc(N2C[C@@H](CNCCC3Cn4c(=O)ccc5ccc(F)c3c54)OC2=O)cc1F` (mixture of isomers) [Example 11, (1RS)-9-fluoro-1-(2-{[(R)-3-(3-fluoro-4-methyl-phenyl)-2-oxo-oxazolidin-5-ylmethyl]-amino}-ethyl)-1,2-dihydro-pyrrolo[3,2,1-ij]quinolin-4-one] gave an MIC of 0.063 µg/mL.
For the compound `O=C1COc2ccc(N3C[C@@H](CCCNC4Cn5c(=O)ccc6ccc(F)c4c65)OC3=O)cc2N1` (mixture of isomers) [Example 12, (1RS)-9-fluoro-1-{3-[(R)-2-oxo-3-(3-oxo-3,4-dihydro-2H-benzo[1,4]oxazin-6-yl)-oxazolidin-5-yl]-propylamino}-1,2-dihydro-pyrrolo[3,2,1-ij]quinolin-4-one], the MIC was at most 0.031 µg/mL.
The same measure for `O=C1CSc2ccc(N3C[C@@H](CCCNC4Cn5c(=O)ccc6ccc(F)c4c65)OC3=O)cc2N1` (mixture of isomers) [Example 13, (1RS)-9-fluoro-1-{3-[(R)-2-oxo-3-(3-oxo-3,4-dihydro-2H-benzo[1,4]thiazin-6-yl)-oxazolidin-5-yl]-propylamino}-1,2-dihydro-pyrrolo[3,2,1-ij]quinolin-4-one]: at most 0.031 µg/mL; for `O=C1CSc2ccc(N3C[C@H](CNCCC4Cn5c(=O)ccc6ncc(F)c4c65)OC3=O)cc2N1` (mixture of isomers) [Example 16, (4RS)-3-fluoro-4-(2-{[(S)-2-oxo-3-(3-oxo-3,4-dihydro-2H-benzo[1,4]thiazin-6-yl)-oxazolidin-5-ylmethyl]-amino}-ethyl)-4,5-dihydro-pyrrolo[3,2,1-de][1,5]naphthyridin-7-one]: at most 0.031 µg/mL.
The same measure for `O=C1CSc2ccc(N3C[C@@H](CNCCC4Cn5c(=O)ccc6ncc(F)c4c65)OC3=O)cc2N1` (mixture of isomers) [Example 17, (4RS)-3-fluoro-4-(2-{[(R)-2-oxo-3-(3-oxo-3,4-dihydro-2H-benzo[1,4]thiazin-6-yl)-oxazolidin-5-ylmethyl]-amino}-ethyl)-4,5-dihydro-pyrrolo[3,2,1-de][1,5]naphthyridin-7-one]: at most 0.031 µg/mL.
Turning to `O=C1CSc2ccc(N3C[C@@H](CCCNC4Cn5c(=O)cnc6cccc4c65)OC3=O)cc2N1` (mixture of isomers) [Example 20, (6RS)-6-{3-[(R)-2-oxo-3-(3-oxo-3,4-dihydro-2H-benzo[1,4]thiazin-6-yl)-oxazolidin-5-yl]-propylamino}-5,6-dihydro-pyrrolo[1,2,3-de]quinoxalin-3-one], the MIC was at most 0.031 µg/mL.
The compound `O=C1COc2ccc(N3C[C@@H](CCCNC4Cn5c(=O)cnc6cccc4c65)OC3=O)cc2N1` (mixture of isomers) [Example 21, (6RS)-6-{3-[(R)-2-oxo-3-(3-oxo-3,4-dihydro-2H-benzo[1,4]oxazin-6-yl)-oxazolidin-5-yl]-propylamino}-5,6-dihydro-pyrrolo[1,2,3-de]quinoxalin-3-one] showed an MIC of at most 0.031 µg/mL.
Take `O=C1CSc2ccc(N3C[C@H](CNCCC4CN5C(=O)CCc6ccc(F)c4c65)OC3=O)cc2N1` (mixture of isomers) [Example 22, (1RS)-9-fluoro-1-(2-{[(S)-2-oxo-3-(3-oxo-3,4-dihydro-2H-benzo[1,4]thiazin-6-yl)-oxazolidin-5-ylmethyl]-amino}-ethyl)-1,2,5,6-tetrahydro-pyrrolo[3,2,1-ij]quinolin-4-one]: the MIC is at most 0.031 µg/mL.
In turn, `O=C1CSc2ccc(N3C[C@@H](CCNCC4CN5C(=O)CCc6ccc(F)c4c65)OC3=O)cc2N1` (mixture of isomers) [Example 23, (1RS)-9-fluoro-1-({2-[(R)-2-oxo-3-(3-oxo-3,4-dihydro-2H-benzo[1,4]thiazin-6-yl)-oxazolidin-5-yl]-ethylamino}-methyl)-1,2,5,6-tetrahydro-pyrrolo[3,2,1-ij]quinolin-4-one] returned an MIC of at most 0.031 µg/mL.
Regarding `O=C1CSc2ccc(N3C[C@@H](CNCCC4CN5C(=O)CCc6ccc(F)c4c65)OC3=O)cc2N1` (mixture of isomers) [Example 24, (1RS)-9-fluoro-1-(2-{[(R)-2-oxo-3-(3-oxo-3,4-dihydro-2H-benzo[1,4]thiazin-6-yl)-oxazolidin-5-ylmethyl]-amino}-ethyl)-1,2,5,6-tetrahydro-pyrrolo[3,2,1-ij]quinolin-4-one], the MIC was at most 0.031 µg/mL.
Take `O=C1COc2ccc(N3C[C@@H](CNCCC4CN5C(=O)CCc6ccc(F)c4c65)OC3=O)cc2N1` (mixture of isomers) [Example 25, (1RS)-9-fluoro-1-(2-{[(R)-2-oxo-3-(3-oxo-3,4-dihydro-2H-benzo[1,4]oxazin-6-yl)-oxazolidin-5-ylmethyl]-amino}-ethyl)-1,2,5,6-tetrahydro-pyrrolo[3,2,1-ij]quinolin-4-one]: the MIC is at most 0.031 µg/mL.
In turn, `O=C1O[C@H](CNCCC2CN3C(=O)CCc4ccc(F)c2c43)CN1c1ccc2c(c1)OCCO2` (mixture of isomers) [Example 26, (1RS)-1-(2-{[(R)-3-(2,3-dihydro-benzo[1,4]dioxin-6-yl)-2-oxo-oxazolidin-5-ylmethyl]-amino}-ethyl)-9-fluoro-1,2,5,6-tetrahydro-pyrrolo[3,2,1-ij]quinolin-4-one] came in with an MIC of 0.25 µg/mL.
In the case of `Cc1ccc(N2C[C@@H](CNCCC3CN4C(=O)CCc5ccc(F)c3c54)OC2=O)cc1F` (mixture of isomers) [Example 27, (1RS)-9-fluoro-1-(2-{[(R)-3-(3-fluoro-4-methyl-phenyl)-2-oxo-oxazolidin-5-ylmethyl]-amino}-ethyl)-1,2,5,6-tetrahydro-pyrrolo[3,2,1-ij]quinolin-4-one], the MIC was 0.5 µg/mL.
On to `O=C1CSc2ccc(N3C[C@@H](CCNCC4Cn5c(=O)ccc6ncc(F)c4c65)OC3=O)cc2N1` (mixture of isomers) [Example 28, (4RS)-3-fluoro-4-({2-[(R)-2-oxo-3-(3-oxo-3,4-dihydro-2H-benzo[1,4]thiazin-6-yl)-oxazolidin-5-yl]-ethylamino}-methyl)-4,5-dihydro-pyrrolo[3,2,1-de][1,5]naphthyridin-7-one], for which the MIC was at most 0.031 µg/mL.
